Measurements published in patent US20250042857A1, “SOS1 Inhibitor With Pyrido-Fused Six-Membered Ring Structure” (HAIHE BIOPHARMA CO., LTD., priority 2021, published 2025).
Read-outs that look alike come from different tables or passages of the source.

Tests used:
p-ERK of PC-9 cells = assay: p-ERK HTRF assay in PC-9 cells; assay type: cell-based; details: PC-9 lung cancer cells, 1 hour treatment, read-out: IC50, inhibitory activity on p-ERK of PC-9 cells
Method in brief: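 PC-9 lung cancer cells plated overnight, then exposed 1 h at 37 °C to a 10-point compound series (10,000–[…] nM final, 0.1% DMSO). After 1 h lysis, phospho-ERK1/2 (Thr202/Tyr204) measured by HTRF at 665/615 nm. Percent inhibition calculated from max and min signals.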

KRAS-G12C/SOS1 = KRAS-G12C/SOS1 (Homo sapiens (Human), UniProt Q07889); assay: Detection of inhibitory effects of compounds on KRAS-G12C/SOS1 (KRASG12C/SOS binding kit, HTRF); details: Em665/620, read-out: IC50, inhibitory activity on interaction of KRAS-G12C/SOS1
Chain of KRAS-G12C/SOS1 (Q07889 whole entry, stated change not applied): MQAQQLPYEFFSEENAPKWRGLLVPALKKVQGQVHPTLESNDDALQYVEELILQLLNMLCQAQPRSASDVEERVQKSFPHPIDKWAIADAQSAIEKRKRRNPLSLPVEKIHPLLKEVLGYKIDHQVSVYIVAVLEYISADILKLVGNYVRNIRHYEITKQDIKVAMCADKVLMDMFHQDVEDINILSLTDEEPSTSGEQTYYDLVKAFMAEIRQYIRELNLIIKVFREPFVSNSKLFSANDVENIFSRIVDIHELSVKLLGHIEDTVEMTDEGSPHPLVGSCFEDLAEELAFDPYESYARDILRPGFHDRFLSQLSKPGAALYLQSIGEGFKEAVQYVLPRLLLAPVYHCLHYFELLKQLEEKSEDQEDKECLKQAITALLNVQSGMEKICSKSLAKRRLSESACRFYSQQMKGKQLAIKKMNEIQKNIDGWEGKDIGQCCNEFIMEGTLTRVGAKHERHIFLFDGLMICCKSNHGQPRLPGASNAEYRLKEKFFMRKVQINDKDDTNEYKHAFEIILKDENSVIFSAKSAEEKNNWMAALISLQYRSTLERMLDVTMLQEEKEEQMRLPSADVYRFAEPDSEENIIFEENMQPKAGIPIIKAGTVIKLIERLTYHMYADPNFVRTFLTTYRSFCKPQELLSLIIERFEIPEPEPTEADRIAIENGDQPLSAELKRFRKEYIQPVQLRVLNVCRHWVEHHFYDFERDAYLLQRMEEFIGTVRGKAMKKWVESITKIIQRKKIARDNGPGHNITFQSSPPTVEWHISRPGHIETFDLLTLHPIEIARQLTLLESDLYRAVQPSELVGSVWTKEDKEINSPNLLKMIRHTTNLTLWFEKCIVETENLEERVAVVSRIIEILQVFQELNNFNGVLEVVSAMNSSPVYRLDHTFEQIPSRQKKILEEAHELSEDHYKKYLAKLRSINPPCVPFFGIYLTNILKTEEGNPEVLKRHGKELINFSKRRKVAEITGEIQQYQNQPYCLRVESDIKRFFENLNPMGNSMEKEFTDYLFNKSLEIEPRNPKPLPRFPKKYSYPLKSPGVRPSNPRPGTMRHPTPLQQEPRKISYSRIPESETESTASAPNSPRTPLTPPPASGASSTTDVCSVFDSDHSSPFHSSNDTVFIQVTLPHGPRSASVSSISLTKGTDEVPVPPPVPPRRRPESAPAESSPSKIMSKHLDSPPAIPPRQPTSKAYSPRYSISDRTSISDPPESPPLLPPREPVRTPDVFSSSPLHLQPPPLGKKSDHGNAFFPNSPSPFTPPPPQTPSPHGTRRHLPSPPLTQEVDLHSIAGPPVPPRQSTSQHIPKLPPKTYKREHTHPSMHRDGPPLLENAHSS
Method in brief: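 HTRF binding of Tag2-KRAS-G12C to Tag1-SOS1 with compounds (10-point 3-fold dilution from 5,000 nM) for 15 min at room temperature, then anti-Tag1-Tb and anti-Tag2-XL665 for 120 min at 4° C. Em665/620 read; inhibition normalised to control wells, IC50 from variable-slope log(inhibitor) fit.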

Which results are given for `CC(=O)N1CCC(c2cc3c(N[C@H](C)c4cccc(C(F)F)c4F)ccnc3cn2)C1` (stereo partly shown) [Compound B-110]?
IC50 (p-ERK of PC-9 cells; Homo sapiens, PC-9, 1 h): ≤ 300 nM; IC50 (KRAS-G12C/SOS1): ≤ 100 nM

Which IC50 (p-ERK of PC-9 cells; Homo sapiens, PC-9, 1 h) does the source give for `Cc1nc(C2(O)CCN(C(=O)[C@H](C)O)CC2)cc2c(N[C@H](C)c3cccc(C(F)F)c3F)ccnc12` [Compound B-176] here?
Its IC50 is 300 to 1000 nM.

What about the IC50 (KRAS-G12C/SOS1) of the same compound?
The IC50 was ≤ 100 nM.

With `CC(=O)N[C@@H]1CCN(c2cc3c(N[C@H](C)c4cccc(C(F)F)c4F)ccnc3cn2)C1` [Compound B-32] as the compound, how does the IC50 (p-ERK of PC-9 cells; Homo sapiens, PC-9, 1 h) read?
The IC50 was ≤ 300 nM.

And the IC50 (KRAS-G12C/SOS1)?
Its IC50 is ≤ 100 nM.

Which results are given for `C[C@@H](Nc1ccnc2cnc(N3CCOCC3)cc12)c1cccc(C(F)F)c1F` [Compound B-21]?
IC50 (p-ERK of PC-9 cells; Homo sapiens, PC-9, 1 h): 300 to 1000 nM; IC50 (KRAS-G12C/SOS1): ≤ 100 nM

How did the IC50 (p-ERK of PC-9 cells; Homo sapiens, PC-9, 1 h) turn out when `C[C@@H](Nc1ccnc2cnc(N3CCCS3(=O)=O)cc12)c1cccc(C(F)F)c1F` [Compound B-52] was run?
The IC50 was ≤ 300 nM.

And the IC50 (KRAS-G12C/SOS1)?
Its IC50 is ≤ 100 nM.

How did the IC50 (p-ERK of PC-9 cells; Homo sapiens, PC-9, 1 h) turn out when `CNC(=O)C1(O)CCN(c2cc3c(N[C@H](C)c4cccc(C(F)F)c4F)ccnc3cn2)CC1` [Compound B-76] was run?
The IC50 was ≤ 300 nM.

What about the IC50 (KRAS-G12C/SOS1) of the same compound?
The IC50 was ≤ 100 nM.

`C[C@@H](Nc1ccnc2cnc(C3(O)CCN(C(=O)c4ccccn4)CC3)cc12)c1cccc(C(F)F)c1F` [Compound B-129] was tested. Which IC50 (p-ERK of PC-9 cells; Homo sapiens, PC-9, 1 h) did it give?
Its IC50 is 300 to 1000 nM.

And the IC50 (KRAS-G12C/SOS1)?
The IC50 was ≤ 100 nM.

How did the IC50 (p-ERK of PC-9 cells; Homo sapiens, PC-9, 1 h) turn out when `COc1c(N2CCN(C(C)=O)CC2)cc2c(N[C@H](C)c3cccc(C(F)F)c3F)ccnc2c1F` [Compound A-102] was run?
Its IC50 is ≤ 300 nM.

What about the IC50 (KRAS-G12C/SOS1) of the same compound?
Its IC50 is ≤ 100 nM.

What does the source list for `C[C@H](O)C(=O)N1CCC(O)(c2cc3c(N[C@H](C)c4cccc(C(F)(F)F)c4F)ccnc3cn2)CC1` [Compound B-126]?
IC50 (p-ERK of PC-9 cells; Homo sapiens, PC-9, 1 h): ≤ 300 nM; IC50 (KRAS-G12C/SOS1): ≤ 100 nM

For `C[C@@H](Nc1ccnc2cnc(C3(O)CCN(C(=O)CO)CC3)cc12)c1cccc(C(F)(F)F)c1F` [Compound B-118], which IC50 (p-ERK of PC-9 cells; Homo sapiens, PC-9, 1 h) is on record?
The IC50 was ≤ 300 nM.

And the IC50 (KRAS-G12C/SOS1)?
The IC50 was ≤ 100 nM.

With `C[C@@H](Nc1ccnc2cnc(C3(O)CCN(C4COCC4O)CC3)cc12)c1cccc(C(F)F)c1F` (stereo partly shown) [Compound B-152] as the compound, how does the IC50 (p-ERK of PC-9 cells; Homo sapiens, PC-9, 1 h) read?
The IC50 was 300 to 1000 nM.

What about the IC50 (KRAS-G12C/SOS1) of the same compound?
Its IC50 is ≤ 100 nM.

What does the source list for `CC(=O)N1C2CCC1CC(O)(c1cc3c(N[C@H](C)c4cccc(C(F)F)c4F)ccnc3c(C)n1)C2` (stereo partly shown) [Compound B-69]?
IC50 (p-ERK of PC-9 cells; Homo sapiens, PC-9, 1 h): > 1000 nM; IC50 (KRAS-G12C/SOS1): ≤ 100 nM

Which IC50 (p-ERK of PC-9 cells; Homo sapiens, PC-9, 1 h) does the source give for `C[C@@H](Nc1ccnc2cnc(N3C[C@H](O)C[C@H]3CO)cc12)c1cccc(C(F)F)c1F` [Compound B-78] here?
Its IC50 is ≤ 300 nM.

What about the IC50 (KRAS-G12C/SOS1) of the same compound?
The IC50 was ≤ 100 nM.

What does the source list for `CC(=O)N1CCC(c2cc3c(N[C@H](C)c4cccc(C(F)F)c4F)ccnc3cn2)CC1` [Compound B-4]?
IC50 (p-ERK of PC-9 cells; Homo sapiens, PC-9, 1 h): ≤ 300 nM; IC50 (KRAS-G12C/SOS1): ≤ 100 nM

What does the source list for `C[C@@H](Nc1ccnc2cnc(C3(O)CCN(C(=O)COC(F)F)CC3)cc12)c1cccc(C(F)F)c1F` [Compound B-141]?
IC50 (p-ERK of PC-9 cells; Homo sapiens, PC-9, 1 h): ≤ 300 nM; IC50 (KRAS-G12C/SOS1): ≤ 100 nM

With `C[C@@H](Nc1ccnc2cnc(C3(O)CCN(C(=O)CC#N)CC3)cc12)c1cccc(C(F)F)c1F` [Compound B-116] as the compound, how does the IC50 (p-ERK of PC-9 cells; Homo sapiens, PC-9, 1 h) read?
The IC50 was ≤ 300 nM.

And the IC50 (KRAS-G12C/SOS1)?
The IC50 was ≤ 100 nM.

Which results are given for `C[C@@H](Nc1ccnc2cnc(-c3ccc(=O)n(C)c3)cc12)c1cccc(C(F)F)c1F` [Compound B-107]?
IC50 (p-ERK of PC-9 cells; Homo sapiens, PC-9, 1 h): ≤ 300 nM; IC50 (KRAS-G12C/SOS1): ≤ 100 nM

How did the IC50 (p-ERK of PC-9 cells; Homo sapiens, PC-9, 1 h) turn out when `C[C@@H](Nc1ccnc2cnc(C3(O)CCN(c4ncc(C#N)cn4)CC3)cc12)c1cccc(C(F)F)c1F` [Compound B-156] was run?
The IC50 was ≤ 300 nM.

What about the IC50 (KRAS-G12C/SOS1) of the same compound?
The IC50 was ≤ 100 nM.

How did the IC50 (p-ERK of PC-9 cells) turn out when `COc1nc(C2(O)CCC(O)CC2)cc2c(N[C@H](C)c3cccc(C(F)F)c3F)ccnc12` (single isomer, unassigned) [Compound B-178-P2] was run?
Its IC50 is ≤ 300 nM.

What about the IC50 (KRAS-G12C/SOS1) of the same compound?
The IC50 was ≤ 100 nM.

`COc1nc(N2CCN(C(C)=O)CC2)cc2c(N[C@H](C)c3cccc(C(F)F)c3F)ccnc12` [Compound B-73] was tested. Which IC50 (p-ERK of PC-9 cells; Homo sapiens, PC-9, 1 h) did it give?
Its IC50 is ≤ 300 nM.

What about the IC50 (KRAS-G12C/SOS1) of the same compound?
Its IC50 is ≤ 100 nM.

Which IC50 (p-ERK of PC-9 cells; Homo sapiens, PC-9, 1 h) does the source give for `COCC(=O)N1CCC(O)(c2cc3c(N[C@H](C)c4cccc(C(F)F)c4F)ccnc3cn2)CC1` [Compound B-114] here?
Its IC50 is ≤ 300 nM.

And the IC50 (KRAS-G12C/SOS1)?
Its IC50 is ≤ 100 nM.

`C[C@@H](Nc1ccnc2cnc(C3(O)CCN(C(=O)C4CC4)CC3)cc12)c1cccc(C(F)F)c1F` [Compound B-128] was tested. Which IC50 (p-ERK of PC-9 cells; Homo sapiens, PC-9, 1 h) did it give?
Its IC50 is ≤ 300 nM.

What about the IC50 (KRAS-G12C/SOS1) of the same compound?
The IC50 was ≤ 100 nM.

How did the IC50 (p-ERK of PC-9 cells; Homo sapiens, PC-9, 1 h) turn out when `COc1c(C2=CCN(C(C)=O)CC2)cc2c(N[C@H](C)c3cccc(C(F)F)c3F)ccnc2c1F` [Compound A-101] was run?
The IC50 was 300 to 1000 nM.

What about the IC50 (KRAS-G12C/SOS1) of the same compound?
The IC50 was ≤ 100 nM.
